Reference: paper PMC7413074 (Journal of pharmacy & pharmaceutical sciences : a …, 2019)
Like-named read-outs stand apart in the source and are kept apart here.

What was measured:
[1] = female, CD1-nude, mouse, in vivo
[2] = CD1-nude, mouse
in vivo [3] = conditions: female, CD1-nude, mouse, ip, 130 mg/kg
in vivo [4] = conditions: CD1-nude, mouse, Kp,uu (unbound ECF to plasma partition coefficient), mean (SD)
in vitro = conditions: CD1, mouse, plasma
[5] = humans; cited from earlier work
[6] = system: medulloblastoma/primitive neuroectodermal tumor (cell line JRMB-6); conditions: single agent, 130 mg/kg IP daily for five consecutive days; cited from earlier work

## O=P1(N(CCCl)CCCl)NCCCO1 (stereo not drawn) [cyclophosphamide]
[1]
  Central clearance CL, estimate (RSE%): 4.4 (3.7) L/h/kg
  Central volume V, estimate (RSE%): 0.65 (5.0) L/kg
  Inter-individual variability, central clearance η-CL, estimate (RSE%): 0.11 (17)
  Peripheral clearance Q, estimate (RSE%): 0.18 (4.3) L/h/kg
  Peripheral volume Vp, estimate (RSE%): 0.062 (2.6) L/kg
  Proportional residual variability εprop, estimate (RSE%): 0.24 (11)
[1]; ip, 130 mg/kg
  Mean observed maximum concentrations: 352.9 µM
[2]; in vivo
  AUCECF,0-5h (unbound brain ECF exposure), mean (SD): 6.3 (1.3) μM·h
  AUCECF,0-5h (unbound tumor ECF exposure), mean (SD): 4.0 (1.4) μM·h
  AUCECF,0-5h (unbound tumor or brain ECF exposure), mean (SD): 5.2 (1.8) μM·h
  Influx clearance CLin, estimate (RSE%): 4.3·10^−4 (16) L/h/kg
  Inter-individual variability, influx clearance η-CLin, estimate (RSE%): 0.31 (51)
  Proportional residual variability εprop, estimate (RSE%): 0.45 (12)
[2]; not told
  Efflux clearance CLef, estimate (RSE%): 2.4·10^−3 (7.0) L/h/kg
  Inter-individual variability, efflux clearance η-CLef, estimate (RSE%): 0.23 (22)
In vivo [3]
  AUC: 113 µM·h
In vivo [4]
  Kp uu: 0.22
In vitro
  fraction unbound: 0.26
[5]
  FU (fraction unbound): 7-17%
[6]
  Response rate: 85%
  Survival versus saline controls: statistically improved survival
